In US20240208968A1, “ALPHA V BETA 6 AND ALPHA V BETA 1 INTEGRIN INHIBITORS AND USES THEREOF” (DiCE Molecules SV, Inc., priority 2021, published 2024):

Assays:
αvβ1 = αvβ1 (Homo sapiens, UniProt P05556+P06756); assay: Solid Phase Integrin αvβ1 Assay; format: binding
Procedure, shortened: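 Wells coated with 1 µg/mL recombinant TGFb1-LAP and blocked with 2% BSA/TBST, 1 mM MnCl2; αvβ1 (added at 0.2 µg/mL) and compound incubated 90 min at room temperature. Bound integrin detected by streptavidin-HRP (20 min) and TMB after Mn-containing washes; IC50 by four-parameter logistic fit.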

αvβ6 = αvβ6 (Homo sapiens, UniProt P06756+P18564); assay: Solid Phase Integrin αvβ6 Assay; format: binding
Chain of αvβ6 (P06756 31-992 limits assumed): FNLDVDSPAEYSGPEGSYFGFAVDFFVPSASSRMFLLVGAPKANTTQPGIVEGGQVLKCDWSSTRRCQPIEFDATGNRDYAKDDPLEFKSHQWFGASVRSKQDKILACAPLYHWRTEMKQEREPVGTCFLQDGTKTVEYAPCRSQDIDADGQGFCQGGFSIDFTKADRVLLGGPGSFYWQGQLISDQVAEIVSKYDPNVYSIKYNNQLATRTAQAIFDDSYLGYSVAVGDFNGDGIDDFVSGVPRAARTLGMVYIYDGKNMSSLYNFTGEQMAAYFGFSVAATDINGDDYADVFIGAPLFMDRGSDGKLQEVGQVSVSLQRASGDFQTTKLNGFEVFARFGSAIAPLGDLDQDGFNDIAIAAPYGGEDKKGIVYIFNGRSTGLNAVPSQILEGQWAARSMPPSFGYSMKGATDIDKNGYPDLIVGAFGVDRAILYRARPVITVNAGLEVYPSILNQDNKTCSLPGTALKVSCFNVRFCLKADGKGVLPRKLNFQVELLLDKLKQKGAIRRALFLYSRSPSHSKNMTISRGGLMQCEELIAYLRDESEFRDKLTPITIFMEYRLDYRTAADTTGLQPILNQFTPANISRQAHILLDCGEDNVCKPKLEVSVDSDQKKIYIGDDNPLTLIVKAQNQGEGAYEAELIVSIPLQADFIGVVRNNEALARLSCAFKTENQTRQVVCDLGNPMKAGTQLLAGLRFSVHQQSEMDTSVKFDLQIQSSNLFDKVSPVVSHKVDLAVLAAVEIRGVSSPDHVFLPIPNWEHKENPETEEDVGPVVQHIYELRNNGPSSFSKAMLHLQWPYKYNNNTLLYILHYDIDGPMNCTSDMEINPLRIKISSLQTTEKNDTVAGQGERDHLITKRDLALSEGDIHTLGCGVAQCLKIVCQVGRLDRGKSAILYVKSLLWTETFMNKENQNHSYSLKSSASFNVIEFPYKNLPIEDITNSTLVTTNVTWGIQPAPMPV
Chain of αvβ6 (P18564 22-707 limits assumed): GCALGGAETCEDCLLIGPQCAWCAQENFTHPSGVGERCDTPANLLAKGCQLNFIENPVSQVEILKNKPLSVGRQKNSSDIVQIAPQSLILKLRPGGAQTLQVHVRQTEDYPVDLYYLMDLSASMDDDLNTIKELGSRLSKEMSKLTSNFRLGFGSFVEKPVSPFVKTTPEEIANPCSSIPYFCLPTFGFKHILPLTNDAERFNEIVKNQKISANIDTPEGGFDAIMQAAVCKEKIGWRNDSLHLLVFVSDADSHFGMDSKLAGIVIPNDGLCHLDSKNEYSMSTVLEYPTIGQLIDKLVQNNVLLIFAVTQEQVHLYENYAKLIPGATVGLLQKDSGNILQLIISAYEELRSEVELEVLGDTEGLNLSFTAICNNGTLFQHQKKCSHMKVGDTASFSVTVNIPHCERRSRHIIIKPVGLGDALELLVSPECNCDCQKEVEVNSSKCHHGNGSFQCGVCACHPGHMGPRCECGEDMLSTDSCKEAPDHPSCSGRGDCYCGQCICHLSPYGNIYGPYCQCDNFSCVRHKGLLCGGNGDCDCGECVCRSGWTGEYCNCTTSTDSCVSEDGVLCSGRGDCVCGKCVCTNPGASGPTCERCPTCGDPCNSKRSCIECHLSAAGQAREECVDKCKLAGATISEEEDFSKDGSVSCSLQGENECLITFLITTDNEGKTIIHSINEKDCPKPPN
Procedure, shortened: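 Plates coated with 1 μg/mL recombinant TGFb1-LAP; compounds and αvβ6 (0.2 μg/mL diluted stock) incubated 1 h at room temperature in 2% BSA/TBST with 1 mM MnCl2. Bound integrin detected with streptavidin-HRP and TMB; IC50 from four-parameter logistic fits.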

Chain of αvβ1 (P06756 31-992 limits assumed): as the sequence (P06756 31-992 limits assumed) above
Chain of αvβ1 (P05556 21-728 limits assumed): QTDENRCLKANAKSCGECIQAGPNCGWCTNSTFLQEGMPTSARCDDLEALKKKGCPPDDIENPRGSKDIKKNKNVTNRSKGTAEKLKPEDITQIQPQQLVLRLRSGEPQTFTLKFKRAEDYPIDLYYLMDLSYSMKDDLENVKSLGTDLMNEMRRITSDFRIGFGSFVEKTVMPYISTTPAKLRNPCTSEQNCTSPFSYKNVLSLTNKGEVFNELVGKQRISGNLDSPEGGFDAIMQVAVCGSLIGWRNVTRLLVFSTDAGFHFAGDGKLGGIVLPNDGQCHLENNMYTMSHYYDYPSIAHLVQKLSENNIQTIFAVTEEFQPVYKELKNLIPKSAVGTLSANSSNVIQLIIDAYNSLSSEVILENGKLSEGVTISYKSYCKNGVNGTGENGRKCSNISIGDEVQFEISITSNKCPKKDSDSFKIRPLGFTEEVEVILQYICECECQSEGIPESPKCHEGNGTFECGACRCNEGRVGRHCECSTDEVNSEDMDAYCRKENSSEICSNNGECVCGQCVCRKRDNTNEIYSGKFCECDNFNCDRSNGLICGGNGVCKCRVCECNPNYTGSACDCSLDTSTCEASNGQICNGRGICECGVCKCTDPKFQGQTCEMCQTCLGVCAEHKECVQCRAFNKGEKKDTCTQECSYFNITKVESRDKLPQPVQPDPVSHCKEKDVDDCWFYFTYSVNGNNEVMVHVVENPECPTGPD

| Compound | IC50 (αvβ1) | IC50 (αvβ6) |
| --- | --- | --- |
| CN1CCc2ccc(S(=O)(=O)N[C@@H](CNC(=O)[C@@H]3CCCN(CCCc4ccc5c(n4)NCCC5)C3)C(=O)O)cc21 [Compound 448] | < 100 nM | < 100 nM |
| O=C(NC[C@@H](Nc1cc(-c2ccccc2)ncn1)C(=O)O)[C@@H]1CCCN(CCCc2ccc3c(n2)NCCC3)C1 [Compound 449] | < 100 nM | < 100 nM |
| CN1CCc2cc(S(=O)(=O)N[C@H](CNC(=O)[C@@H]3CCCN(CCCc4ccc5c(n4)NCCC5)C3)C(=O)O)ccc21 [Compound 450] | > 1000 nM | 100 to 1000 nM |
| O=C(NC[C@H](Nc1ncc(C(F)(F)F)cn1)C(=O)O)[C@@H]1CCCN(CCCc2ccc3c(n2)NCCC3)C1 [Compound 451] | < 100 nM | < 100 nM |
| O=C(O)C[C@H](CO[C@@H]1CCCN(CCCc2ccc3c(n2)NCCC3)C1)c1cccc(-c2ccccc2)c1 [Compound 456] | < 100 nM | < 100 nM |
| O=C(O)C[C@@H](CO[C@@H]1CCCN(CCCc2ccc3c(n2)NCCC3)C1)c1cccc(-c2ccccc2)c1 [Compound 457] | > 1000 nM | 100 to 1000 nM |
| O=C(O)C[C@H](CO[C@@H]1CCCN(CCCc2ccc3c(n2)NCCC3)C1)c1ccc(-c2ccccc2)cc1 [Compound 458] | < 100 nM | < 100 nM |
| O=C(O)C[C@@H](CO[C@@H]1CCCN(CCCc2ccc3c(n2)NCCC3)C1)c1ccc(-c2ccccc2)cc1 [Compound 459] | > 1000 nM | 100 to 1000 nM |
| O=C(O)C[C@H](CO[C@@H]1CCCN(CCCc2ccc3c(n2)NCCC3)C1)c1ccccc1-c1ccccc1 [Compound 460] | > 1000 nM | > 1000 nM |
| O=C(O)C[C@@H](CO[C@@H]1CCCN(CCCc2ccc3c(n2)NCCC3)C1)c1ccccc1-c1ccccc1 [Compound 461] | > 1000 nM | > 1000 nM |
| O=C(O)C[C@H](CO[C@@H]1CCCN(CCCc2ccc3c(n2)NCCC3)C1)c1cccc(N2C[C@@H]3CC[C@H]2CO3)c1 [Compound 462] | < 100 nM | < 100 nM |
| O=C(O)C[C@H](CO[C@@H]1CCCN(CCCc2ccc3c(n2)NCCC3)C1)c1cccc(N2C[C@H]3CC[C@@H]2CO3)c1 [Compound 463] | 100 to 1000 nM | 100 to 1000 nM |
| O=C(O)C[C@@H](CO[C@@H]1CCCN(CCCc2ccc3c(n2)NCCC3)C1)c1cccc(N2C[C@@H]3CC[C@H]2CO3)c1 [Compound 464] | 100 to 1000 nM | 100 to 1000 nM |
| O=C(O)C[C@@H](CO[C@@H]1CCCN(CCCc2ccc3c(n2)NCCC3)C1)c1cccc(N2C[C@H]3CC[C@@H]2CO3)c1 [Compound 465] | < 100 nM | < 100 nM |
| O=C(N[C@@H](CCO[C@@H]1CCCN(CCCc2ccc3c(n2)NCCC3)C1)C(=O)O)c1c(F)cc(N2CCOC[C@@H]2C(F)(F)F)cc1F [Compound 466] | < 100 nM | 100 to 1000 nM |
| O=C(N[C@@H](CCO[C@@H]1CCCN(CCCc2ccc3c(n2)NCCC3)C1)C(=O)O)c1c(F)cc(N2CCOCC2)cc1F [Compound 467] | < 100 nM | < 100 nM |
| O=C(O)[C@H](CCO[C@@H]1CCCN(CCCc2ccc3c(n2)NCCC3)C1)Nc1ncnc2ccsc12 [Compound 470] | 100 to 1000 nM | 100 to 1000 nM |
| Cc1csc2c(N[C@@H](CCO[C@@H]3CCCN(CCCc4ccc5c(n4)NCCC5)C3)C(=O)O)ncnc12 [Compound 471] | 100 to 1000 nM | 100 to 1000 nM |

| Compound | IC50 (αvβ1) | IC50 (αvβ6) |
| --- | --- | --- |
| O=C(O)[C@H](CCO[C@@H]1CCCN(CCCc2ccc3c(n2)NCCC3)C1)Nc1ncnc2sccc12 [Compound 472] | > 1000 nM | < 100 nM |
| Cc1csc2ncnc(N[C@@H](CCO[C@@H]3CCCN(CCCc4ccc5c(n4)NCCC5)C3)C(=O)O)c12 [Compound 473] | > 1000 nM | > 1000 nM |
| O=C(O)[C@H](CCO[C@@H]1CCCN(CCCc2ccc3c(n2)NCCC3)C1)Nc1ncnc2cc(F)c(F)cc12 [Compound 474] | 100 to 1000 nM | < 100 nM |
| O=C(O)[C@H](CCO[C@@H]1CCCN(CCCc2ccc3c(n2)NCCC3)C1)Nc1ncnc2cc(C(F)(F)F)ccc12 [Compound 475] | > 1000 nM | > 1000 nM |
| O=C(O)[C@@](O)(CO[C@@H]1CCCN(Cc2ccc3c(n2)NCCC3)C1)c1ccccc1 [Compound 477] | > 1000 nM | > 1000 nM |
| O=C(O)[C@](O)(CO[C@@H]1CCCN(Cc2ccc3c(n2)NCCC3)C1)c1ccccc1 [Compound 478] | > 1000 nM | > 1000 nM |
| O=C(O)C[C@H](CO[C@@H]1CCCN(CCCc2ccc3c(n2)NCCC3)C1)c1cc(C2CC2)ccc1F [Compound 481] | < 100 nM | < 100 nM |
| O=C(O)C[C@H](CO[C@@H]1CCCN(CCCc2ccc3c(n2)NCCC3)C1)c1cccc(N2CCCC2=O)c1 [Compound 482] | < 100 nM | < 100 nM |
| O=C(O)C[C@H](CO[C@@H]1CCCN(CCCc2ccc3c(n2)NCCC3)C1)c1cc(F)cc(C2CC2)c1 [Compound 483] | < 100 nM | < 100 nM |
| O=C(O)[C@@H](CCO[C@@H]1CCCN(CCCc2ccc3c(n2)NCCC3)C1)c1ccc(F)c(-c2ccccc2)c1 [Compound 485] | > 1000 nM | > 1000 nM |
| O=C(O)[C@@H](CCO[C@@H]1CCCN(CCCc2ccc3c(n2)NCCC3)C1)c1cccc2c1cnn2CC1CC1 [Compound 486] | 100 to 1000 nM | < 100 nM |
| O=C(O)[C@@H](CCO[C@@H]1CCCN(CCCc2ccc3c(n2)NCCC3)C1)c1cccc2nn(CC3CC3)cc12 [Compound 487] | < 100 nM | < 100 nM |
| O=C(O)C[C@H](CO[C@@H]1CCCN(CCCc2ccc3c(n2)NCCC3)C1)c1cncc(C2CC2)c1 [Compound 489] | < 100 nM | < 100 nM |
| O=C(O)C[C@H](CO[C@@H]1CCCN(CCCc2ccc3c(n2)NCCC3)C1)c1ccnc(C2CC2)c1 [Compound 490] | < 100 nM | < 100 nM |
| O=C(O)C[C@H](CO[C@@H]1CCCN(CCCc2ccc3c(n2)NCCC3)C1)c1cccc([C@@H]2CCOC2)c1 [Compound 491] | < 100 nM | < 100 nM |
| O=C(O)C[C@H](CO[C@@H]1CCCN(CCCc2ccc3c(n2)NCCC3)C1)c1cccc(-n2cccn2)c1 [Compound 492] | < 100 nM | < 100 nM |
| O=C(O)C[C@H](CO[C@@H]1CCCN(CCCc2ccc3c(n2)NCCC3)C1)c1cccc([C@H]2CCOC2)c1 [Compound 493] | 100 to 1000 nM | 100 to 1000 nM |
| O=C(N[C@H](CCO[C@@H]1CCCN(CCCc2ccc3c(n2)NCCC3)C1)C(=O)O)c1c(F)cc(N2CCOC[C@@H]2C(F)(F)F)cc1F [Compound 494] | > 1000 nM | > 1000 nM |

More lines, now with the values ahead:

| IC50 (αvβ1) | IC50 (αvβ6) | Compound |
| --- | --- | --- |
| 100 to 1000 nM | 100 to 1000 nM | O=C(O)[C@@H](CCO[C@H]1CCCN(CCCc2ccc3c(n2)NCCC3)C1)NC(=O)C12CCC(CC1)CC2 [Compound 443] |
| > 1000 nM | > 1000 nM | O=C(O)[C@@H](CCO[C@H]1CCCN(CCCc2ccc3c(n2)NCCC3)C1)Nc1ncnc2ccccc12 [Compound 444] |
| 100 to 1000 nM | 100 to 1000 nM | O=C(O)C[C@@H](CO[C@H]1CCCN(CCCc2ccc3c(n2)NCCC3)C1)c1ccccc1 [Compound 445] |
| 100 to 1000 nM | < 100 nM | O=C(O)[C@H](CCO[C@H]1CCCN(CCCc2ccc3c(n2)NCCC3)C1)Nc1ncnc2ccccc12 [Compound 446] |
| < 100 nM | < 100 nM | O=C(O)[C@H](CCO[C@H]1CCCN(CCCc2ccc3c(n2)NCCC3)C1)NC(=O)C12CCC(CC1)CC2 [Compound 447] |
| > 1000 nM | > 1000 nM | O=C(O)[C@](O)(CO[C@@H]1CCCN(CCCc2ccc3c(n2)NCCC3)C1)c1ccccc1 [Compound 452] |
| > 1000 nM | > 1000 nM | O=C(O)[C@@](O)(CO[C@@H]1CCCN(CCCc2ccc3c(n2)NCCC3)C1)c1ccccc1 [Compound 453] |
| > 1000 nM | > 1000 nM | O=C(O)[C@@](O)(CO[C@@H]1CCCN(CCCCc2ccc3c(n2)NCCC3)C1)c1ccccc1 [Compound 454] |
| > 1000 nM | > 1000 nM | O=C(O)[C@](O)(CO[C@@H]1CCCN(CCCCc2ccc3c(n2)NCCC3)C1)c1ccccc1 [Compound 455] |
| < 100 nM | < 100 nM | O=C(N[C@@H](CCO[C@@H]1CCCN(CCCc2ccc3c(n2)NCCC3)C1)C(=O)O)c1c(F)cccc1F [Compound 468] |
| < 100 nM | < 100 nM | O=C(N[C@@H](CCO[C@@H]1CCCN(CCCc2ccc3c(n2)NCCC3)C1)C(=O)O)c1ccccc1 [Compound 469] |
| < 100 nM | < 100 nM | O=C(O)[C@H](CCO[C@@H]1CCCN(CCCc2ccc3c(n2)NCCC3)C1)NC(=O)[C@@H]1CCCN1S(=O)(=O)c1ccccc1 [Compound 476] |
| 100 to 1000 nM | 100 to 1000 nM | O=C(N[C@H](CCO[C@@H]1CCCN(CCCc2ccc3c(n2)NCCC3)C1)C(=O)O)c1ccccc1 [Compound 479] |
| 100 to 1000 nM | 100 to 1000 nM | O=C(N[C@H](CCO[C@@H]1CCCN(CCCc2ccc3c(n2)NCCC3)C1)C(=O)O)c1c(F)cccc1F [Compound 480] |
| > 1000 nM | > 1000 nM | O=C(O)[C@@H](CCO[C@@H]1CCCN(CCCc2ccc3c(n2)NCCC3)C1)c1ccc(C2CC2)cc1 [Compound 484] |
| < 100 nM | < 100 nM | O=C(N[C@@H](CCO[C@@H]1CCCN(CCCc2ccc3c(n2)NCCC3)C1)C(=O)O)c1cc(Cl)cc(Cl)c1 [Compound 488] |
| < 100 nM | > 1000 nM | O=C(O)[C@@H](CCO[C@@H]1CCCN(CCCc2ccc3c(n2)NCCC3)C1)NC(=O)[C@@H]1CCCN1S(=O)(=O)c1ccccc1 [Compound 495] |
| > 1000 nM | 100 to 1000 nM | O=C(N[C@H](CCO[C@@H]1CCCN(CCCc2ccc3c(n2)NCCC3)C1)C(=O)O)c1cc(Cl)cc(Cl)c1 [Compound 496] |
